Results published in patent US20210260101A1, “POTENTIATED ANTIBIOTIC COMPOSITIONS AND METHODS OF USE FOR TREATING BACTERIAL INFECTIONS AND BIOFILMS” (priority 2018, published 2021).
“And” between values parts separate entries of the source, which are not always exact repeats. Equal entries are not always repeated. Where two headings read alike, the source gives them in different places.

Assays:
PA OU15 = experiment: Checkerboard assay, PA OU15; format: cell-based, Pseudomonas aeruginosa
Method: (§1) Cells were grown at 35° C. with shaking. The OD600 (optical density at 600 nm) was monitored and recorded for each sample over 24 hr. Each checkerboard trial was done in triplicate using sterile Greiner CellStar™ flat bottom polystyrene plates, catalog #655180. Each growth curve was done in duplicate.

[1] = system: biofilms of P. aeruginosa BAA-47; experiment: MBEC assay (Calgary biofilm device), PA BAA-47; format: cell-based, Pseudomonas aeruginosa
Method: A sub-culture of P. aeruginosa BAA-47 was grown from the cryogenic stock on an agar plate overnight at 35° C. The MBEC plate was inoculated with 150 μL of CAMHB/well plus 1 μL of a stock culture made from 1 colony/mL of P. aeruginosa BAA-47 in CAMHB (˜5×10^5 CFU/mL). The MBEC inoculator plate was sealed with Parafilm™ and incubated for 24 hr at 35° C. with 100 rpm shaking to facilitate biofilm formation on the prongs. Following biofilm formation, the lid of the MBEC inoculator was removed and placed in a rinse plate containing 200 μL of sterile PBS for 10 sec. […] Antimicrobial solutions were serial-diluted and added to the 96-well plate, which contained 200 μL of CAMHB per well. After the rinsing step, the preformed biofilm prong lid was immediately transferred into the prepared antimicrobial challenge plate and incubated at 35° C. for 20-24 hr. […] After incubation, the OD600 of the recovery plate was measured using a Tecan Infinite M20 plate reader to determine the MBEC of the antimicrobial compounds tested. […] Likewise, the OD600 for the base of the challenge plate was measured to determine the MICs of the antimicrobial compounds. The fractional inhibitory concentration index (FICI) calculated based on the established equation was used to determine synergy (FICI≤0.5), additivity (0.5<FICI<1), and no synergy (FICI≥1).

[2] = system: clinical isolates OU15, OU19, and OU22; experiment: Checkerboard assay, isolates OU15, OU19 and OU22 reported together; format: cell-based, Pseudomonas aeruginosa; settings: Pseudomonas aeruginosa
Method: as §1

PA OU19 = experiment: Checkerboard assay, PA OU19; format: cell-based, Pseudomonas aeruginosa
Method: as §1

[3] = system: P. aeruginosa OU1 (PA OU1); experiment: Checkerboard assay, clinical isolate PA OU1; format: cell-based, Pseudomonas aeruginosa
Method: (§2) Cells were grown at 37° C. The change in OD600 (optical density at 600 nm) was measured and recorded after 24 hr of treatment. Each checkerboard trial was done in triplicate using sterile Greiner CellStar™ flat bottom polystyrene plates, catalog #655180.
as §1

E. coli 25922 = experiment: MIC/potentiation against E. coli 25922; format: cell-based, Escherichia coli; settings: 3×10^5 CFU/mL
MRSA USA 300 ATCC 1717 = experiment: Checkerboard MIC assay against MRSA USA300 (Example 1); format: cell-based, Staphylococcus aureus; settings: MRSA USA300
[4] = system: MRSE 35984 biofilm formation; experiment: Crystal violet biofilm formation inhibition (MBIC); format: cell-based, Staphylococcus epidermidis
Excerpt: Additionally, higher concentrations of BPEI corresponded to greater inhibition of biofilm formation.

[5] = system: P. aeruginosa PA01 ATCC BAA-47; experiment: MIC/potentiation against P. aeruginosa PA01 (Example 1); format: cell-based, Pseudomonas aeruginosa; settings: higher inoculum, 5 × 10^7 CFU/ml
[6] = system: P. aeruginosa ATCC BAA-47; experiment: Checkerboard assay (Example 5), PA BAA-47; format: cell-based, Pseudomonas aeruginosa
Method: as §1

PA OU12 = experiment: Checkerboard assay, PA OU12; format: cell-based, Pseudomonas aeruginosa
Method: as §1

MRSE ATCC 29887 biofilm = experiment: MBEC assay (challenge plate MIC, recovery plate MBEC), MRSE 29887; format: cell-based, Staphylococcus epidermidis
Method: A sub-culture of MRSE was grown from the cryogenic stock on an agar plate overnight at 35° C. The MBEC plate was inoculated with 150 μL of TSB/well plus 1 μL of a stock culture made from 1 colony/mL of MRSE in TSB. The MBEC inoculator plate was sealed with Parafilm and incubated for 24 hours at 35° C. with 100 rpm shaking to facilitate biofilm formation on the prongs. Following biofilm formation, the lid of the MBEC inoculator was removed and placed in a rinse plate containing 200 μL of sterile PBS for 10 sec. Biofilm growth check (BGC) was performed by breaking a few prongs off using sterile pliers, submerging them in 1 mL PBS, and sonicating them on high for 30 minutes to dislodge the biofilm. After sonication, the biofilm solution was serial-diluted and spot-plated on agar plates for CFU counting to determine the biofilm density on the prongs.
A challenge plate was made in a new pre-sterilized 96-well plate in a checkerboard-assay pattern to test the synergistic activity of BPEI+antibiotic combinations. […] After incubation, the OD600 (optical density at 600 nm) of the recovery plate was measured using a Tecan Infinite M20 plate reader to determine the MBEC of the antimicrobial compounds tested. […] Likewise, the OD600 for the base of the challenge plate was measured […] to determine the MICs of the antimicrobial compounds.

PA OU22 = experiment: Checkerboard assay, PA OU22; format: cell-based, Pseudomonas aeruginosa
Method: as §1

P. aeruginosa 27853 = experiment: Checkerboard assay, P. aeruginosa 27853; format: cell-based, Pseudomonas aeruginosa
Method: as §2, §1

SMILES: CCN1CCN(C(=O)N[C@@H](C(=O)N[C@@H]2C(=O)N3[C@@H]2SC(C)(C)[C@@H]3C(=O)O)c2ccccc2)C(=O)C1=O [piperacillin]
- PIP MIC in combination with BPEI600 (PA OU15; BPEI600 amount in same cell): 32 µg/mL
- MIC (PA OU15; Pseudomonas aeruginosa, PA OU15, agent alone, read-out: MIC): 128 µg/mL
- piperacillin MBEC in combination with BPEI600 ([1]; 16 μg/mL of BPEI): 8 µg/mL
- MBEC ([1]; P. aeruginosa BAA-47 biofilm, agent alone): 256 µg/mL
- MIC ([2]; read-out: piperacillin MIC with BPEI600 at ¼th of its MIC value): 1 to 4 µg/mL
- MIC ([2]; isolates OU15, OU19, OU22, agent alone (data not shown), read-out: MIC): > 256 µg/mL
- PIP MIC in combination with BPEI600 (PA OU19; BPEI600 amount in same cell): 1 µg/mL
- MIC (PA OU19; Pseudomonas aeruginosa, PA OU19, agent alone, read-out: MIC): > 256 µg/mL
- PIP MIC in combination with 600 Da BPEI [3]: 8 µg/mL and 4 µg/mL
- PIP MIC in combination with PEG-BPEI ([3]; PEG-BPEI amount in same cell): 4 µg/mL
- MIC ([3]; Pseudomonas aeruginosa, PA OU1, agent alone, piperacillin only, no tazobactam): 64 µg/mL
- PIP MIC in combination with 600 Da BPEI ([3]; listed as PIP): 4 µg/mL
- MIC (E. coli 25922; Escherichia coli, 25922, read-out: piperacillin MIC with 8 μg/mL (13.6 μM) of BPEI600): 0.125 µg/mL
- MIC (E. coli 25922; Escherichia coli, 25922, read-out: piperacillin MIC with 32 μg/mL (34 μM) of PEG350-BPEI600): 0.25 µg/mL
- MIC (E. coli 25922; Escherichia coli, 25922, alone, read-out: piperacillin MIC): 1 µg/mL
- MIC with 4 μg/ml (6.75 μM) 600-Da BPEI (MRSA USA 300 ATCC 1717): 1 µg/mL
- MIC (MRSA USA 300 ATCC 1717; Staphylococcus aureus, agent alone, read-out: MIC of antibiotic only): 4 µg/mL
- piperacillin concentration preventing biofilm growth with 8 μg/mL of BPEI [4]: 16 µg/mL
- piperacillin concentration preventing biofilm growth with 16 μg/mL of BPEI [4]: 8 µg/mL
- Minimum Biofilm Inhibitory Concentration (MBIC) ([4]; agent alone, 24 hours): 64 µg/mL
- MIC, antibiotic + 0.5 μg/ml (0.85 μM) 600-Da BPEI [5]: 16 µg/mL
- MIC, antibiotic + 4 μg/ml (4.25 μM) PEG350BPEI600 [5]: 32 µg/mL
- PIP MIC in combination with BPEI600 ([6]; BPEI600 amount in same cell): 1 µg/mL
- MIC ([6]; Pseudomonas aeruginosa, PA BAA-47, agent alone): 4 µg/mL
- PIP MIC in combination with BPEI600 (PA OU12; BPEI600 amount in same cell): 8 µg/mL
- MIC (PA OU12; Pseudomonas aeruginosa, PA OU12, agent alone): 128 µg/mL
- piperacillin concentration eradicating biofilms with 128 μg/mL BPEI (MRSE ATCC 29887 biofilm; MRSE 29887 biofilm): 64 µg/mL
- MIC (MRSE ATCC 29887 biofilm; Staphylococcus epidermidis, MRSE 29887, agent alone): 512 µg/mL
- PIP MIC in combination with BPEI600 (PA OU22; BPEI600 amount in same cell): 4 µg/mL
- MIC (PA OU22; Pseudomonas aeruginosa, PA OU22, agent alone, read-out: MIC): > 256 µg/mL
- PIP MIC in combination with 600 Da BPEI (P. aeruginosa 27853; BPEI amount in same cell): 0.25 µg/mL
- PIP MIC in combination with PEG-BPEI (P. aeruginosa 27853; PEG-BPEI amount in same cell): 0.5 µg/mL
- MIC (P. aeruginosa 27853; Pseudomonas aeruginosa, PA 27853, agent alone, piperacillin only, no tazobactam): 4 µg/mL
